Measured values published in patent US4518581A, “Imparting low- or anti-cariogenic property to orally-usable products” (Kabushiki Kaisha Hayashibara Seibutsu Kagaku Kenkyujo, priority 1981, dated 1985).

Tests used:
[1] = target: T1, water-insoluble glucan producing enzyme (Streptococcus downei, UniProt P27470); assay: Effect of saccharides on formation of water-insoluble glucan from sucrose (Experiment 3); type: biochemical, Streptococcus mutans 6715 strain; conditions: saccharide reduced to 10% against sucrose: 1 ml 4 w/v % sucrose plus 1 ml 0.4 w/v % saccharide, 37° C., 16 hours
T1 construct: to the supernatant was added with ammonium sulfate to give 60% saturation; endogenous in cells; host or cells: Streptococcus mutans 6715 strain (today S. sobrinus), culture supernatant, ammonium sulfate precipitate, dialyzed
T1 sequence (P27470 39-1592): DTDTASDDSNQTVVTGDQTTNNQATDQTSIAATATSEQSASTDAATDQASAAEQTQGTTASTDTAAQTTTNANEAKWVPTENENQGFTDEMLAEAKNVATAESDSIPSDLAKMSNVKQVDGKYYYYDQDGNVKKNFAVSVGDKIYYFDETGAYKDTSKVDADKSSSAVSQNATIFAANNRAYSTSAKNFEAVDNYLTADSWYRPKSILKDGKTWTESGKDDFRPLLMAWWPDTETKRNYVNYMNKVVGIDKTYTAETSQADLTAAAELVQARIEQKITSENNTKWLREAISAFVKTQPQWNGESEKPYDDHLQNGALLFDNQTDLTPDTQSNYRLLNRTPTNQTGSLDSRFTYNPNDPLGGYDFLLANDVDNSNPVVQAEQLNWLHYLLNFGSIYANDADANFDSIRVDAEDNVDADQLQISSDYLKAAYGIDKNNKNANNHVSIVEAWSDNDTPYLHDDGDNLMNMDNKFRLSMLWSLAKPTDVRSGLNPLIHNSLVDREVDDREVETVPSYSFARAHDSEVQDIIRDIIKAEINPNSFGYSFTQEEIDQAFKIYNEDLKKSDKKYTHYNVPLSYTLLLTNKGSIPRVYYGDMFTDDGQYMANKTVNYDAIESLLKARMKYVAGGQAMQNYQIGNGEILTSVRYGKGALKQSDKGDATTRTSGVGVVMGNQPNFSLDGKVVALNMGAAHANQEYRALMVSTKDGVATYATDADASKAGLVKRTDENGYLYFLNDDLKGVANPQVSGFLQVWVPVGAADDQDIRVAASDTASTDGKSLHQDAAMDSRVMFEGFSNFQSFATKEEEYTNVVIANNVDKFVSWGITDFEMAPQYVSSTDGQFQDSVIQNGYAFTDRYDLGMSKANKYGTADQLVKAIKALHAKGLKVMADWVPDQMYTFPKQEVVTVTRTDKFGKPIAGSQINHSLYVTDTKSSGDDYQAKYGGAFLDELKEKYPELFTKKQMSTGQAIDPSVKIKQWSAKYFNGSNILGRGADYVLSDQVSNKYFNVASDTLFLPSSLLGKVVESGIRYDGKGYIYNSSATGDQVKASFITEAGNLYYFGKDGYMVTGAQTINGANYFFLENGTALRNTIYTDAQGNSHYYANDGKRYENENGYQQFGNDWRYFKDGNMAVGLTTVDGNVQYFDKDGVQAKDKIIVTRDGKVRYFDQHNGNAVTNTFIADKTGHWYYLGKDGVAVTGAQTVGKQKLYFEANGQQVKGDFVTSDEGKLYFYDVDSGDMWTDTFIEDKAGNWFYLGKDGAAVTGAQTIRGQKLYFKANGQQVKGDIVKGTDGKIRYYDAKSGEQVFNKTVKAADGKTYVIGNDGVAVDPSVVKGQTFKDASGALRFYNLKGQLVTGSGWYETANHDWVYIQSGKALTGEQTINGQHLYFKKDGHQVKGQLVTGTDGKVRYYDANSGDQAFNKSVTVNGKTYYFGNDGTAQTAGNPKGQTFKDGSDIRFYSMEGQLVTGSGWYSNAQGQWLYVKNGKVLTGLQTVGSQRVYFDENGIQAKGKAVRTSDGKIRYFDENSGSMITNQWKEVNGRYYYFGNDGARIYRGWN

[2] = tested on: Streptococcus mutans 6715 strain; assay: Organic acid formation from saccharides by Streptococcus mutans cells, pH-measurement (Experiment 4); type: cell-based; conditions: 37° C., 30 minutes; for organic acid formation from the saccharide: Streptococcus mutans 6715 cells; for pH-Level of the reaction mixture (organic acid formation): cell suspension, Stephan's buffer (pH 7.0), saccharide solution
Method: Organic acid formation from some saccharides by Streptococcus mutans was tested: Streptococcus mutans 6715 strain was cultivaed similarly as in EXPERIMENT 1, and the cells, obtained by centrifuging the culture, were washed with 0.9 w/v % sodium chloride solution, followed by additional centrifugation. Two ml of a mixture solution, consisting of 0.2 ml of the cell suspension, prepared from about 100 ml of the culture, 1.5 ml of Stephan's buffer, and 0.3 ml aqueous solution of each saccharide as listed in TABLE II, was incubated at 37° C. for 30 minutes, followed by pH-measurement of the reaction mixture. The Stephan's buffer was prepared by the method as reported by R. M. Stephan et al., Journal of Dental Research, Vol.26, pp.15-41 (1947): One ml of Solution I, prepared by dissolving 17.89 g Na2 HPO4. 12H2 O, 7.92 g KOH and 6.81 g KH2 PO4 in water to give a final volume of 100 ml, was placed in a 100-ml volumetric flask, and mixed with about 90 ml of water. To the flask was added 1 ml of Solution II, prepared by dissolving 4.54 g KH2 PO4, 0.32 g MgSO4.7H2 O, 0.57 g CaSO4.2H2 O and 10 ml of 3.5% hydrochloric acid solution in water to give a final volume of 100 ml. This mixture was diluted with additional water to obtain 100 ml of Stephan's buffer (pH 7.0).
The results are given in TABLE II, wherein the organic acid formation from the saccharides can be estimated by the pH-values.

[3] = target: T1, water-insoluble glucan producing enzyme; assay: Effect of saccharides on formation of water-insoluble glucan from sucrose (Experiment 3); type: biochemical, Streptococcus mutans 6715 strain; conditions: 1 ml 4 w/v % sucrose plus 1 ml 4 w/v % saccharide, 0.02 units enzyme, 37° C., 16 hours; sucrose control 300
Method: After completion of the cultivation, the culture was separated into cell precipitant and supernatant. Thereafter, to the supernatant was added with ammonium sulfate to give 60% saturation, and the resultant precipitant was dialyzed against 0.1M phosphate buffer (pH 7.2) to obtain an aqueous solution containing the enzyme.
The titers of the enzyme were assayed as follows: A mixture solution, consisting of 1 ml of 0.2M aqueous sucrose solution, 1 ml of water, 1 ml of 0.1M phosphate buffer containing 0.05 w/v % NaN3, and 0.5 ml of the enzyme solution (below 0.05 units), is incubated at 37° C. for 9 hours, followed by centrifugation of the reaction mixture. The resultant precipitant is mixed with 4 ml of 0.5N sodium hydroxide solution, and then incubated at this temperature for an additional one hour to dissolve the precipitant. The amount of water-insoluble glucan formed during the enzymatic reaction is then measured. One unit of the enzyme is defined as the amount of enzyme that transfers 1 μmole glucose from sucrose to the water-insoluble glucan in one minute.
Effects of some saccharides on the formation of water-insoluble glucan were tested: Water-insoluble glucan formation and inhibition thereof were determined according to the enzyme assay method as described in EXPERIMENT 1, except that the mixture solution contained sucrose, or sucrose and each saccharide as listed in TABLE I. The experiment was carried out as follows: A mixture solution, consisting of 1 ml of 4 w/v % aqueous sucrose solution, 1 ml of 4 w/v % aqueous solution of each saccharide as listed in TABLE I, 1.5 ml of 0.1M phosphate buffer containing 0.05 w/v % NaN3, and 0.5 ml of the enzyme solution (0.02 units), was incubated at 37° C. for 16 hours, and the water-insoluble glucan formation in the reaction mixture was determined according to the enzyme assy method.
In a control experiment, 1 ml of the above described saccharide solution was replaced with the same amount of water.
The inhibition degree was calculated with following equation:
Inhibition degree (%)=100-A/B×100
where A and B are respective amounts of the water-insoluble glucan formed (μg/ml) when the mixture solution contained sucrose or sucrose and each of the saccharides.

Row | SMILES | C: inhibition degree of water-insoluble glucan formation [1] | C: inhibition degree of water-insoluble glucan formation ([1]; listed as isomaltopentaose) | organic acid formation from the saccharide [2] | pH-Level of the reaction mixture (organic acid formation) [2] | A: amounts of water-insoluble glucan formed [3] | C: inhibition degree of water-insoluble glucan formation ([1]; listed as isomaltotriose)
1 | OC[C@H]1O[C@H](OC[C@H]2O[C@H](OC[C@H]3O[C@H](OC[C@H]4O[C@H](OC[C@H]5OC(O)[C@H](O)[C@@H](O)[C@@H]5O)[C@H](O)[C@@H](O)[C@@H]4O)[C@H](O)[C@@H](O)[C@@H]3O)[C@H](O)[C@@H](O)[C@@H]2O)[C@H](O)[C@@H](O)[C@@H]1O (stereo partly drawn) [Isomaltopentaose, 6^3 -O-α-isomaltosyl isomaltotriose] | 60% | 45-60% | no organic acid formation | 7.0 | 15 µg/mL | –
2 | OC[C@H]1O[C@H](OC[C@H]2O[C@H](OC[C@H]3OC(O)[C@H](O)[C@@H](O)[C@@H]3O)[C@H](O)[C@@H](O)[C@@H]2O)[C@H](O)[C@@H](O)[C@@H]1O (stereo partly shown) [Isomaltotriose] | 49% | – | no organic acid formation | 7.0 | 36 µg/mL | 45-60%
